Reference: patent US20160122315A1, “CRYSTALLINE IMATINIB MESYLATE PROCESS” (SHILPA MEDICARE LIMITED, priority 2013, published 2016)
Read-outs that look alike come from different tables or passages of the source.

Key:
[1] = Hygroscopicity of crystalline Form-SA; type: physicochemical; conditions: crystalline solid
[2] = crystal forms disclosed by Zimmermann et al, U.S.'051; cited from earlier work
[3] = compared with the α-crystal form; disclosed in U.S.'051; cited from earlier work

SMILES | hygroscopicity [1] | hygroscopicity [2] | thermodynamic stability [3]
Cc1ccc(NC(=O)c2ccc(CN3CCN(C)CC3)cc2)cc1Nc1nccc(-c2cccnc2)n1 [Form-SA, 4-[(4-Methyl-1-piperazinyl)methyl]-N-[4-methyl-3-[[4-(3-pyridinyl)-2-pyrimidinyl]amino]-phenyl]benzamide methanesulfonate] | non-hygroscopic | – | –
CS(=O)(=O)O.Cc1ccc(NC(=O)c2ccc(CN3CCN(C)CC3)cc2)cc1Nc1nccc(-c2cccnc2)n1 [a-crystal form] | – | hygroscopic | –
CS(=O)(=O)O.Cc1ccc(NC(=O)c2ccc(CN3CCN(C)CC3)cc2)cc1Nc1nccc(-c2cccnc2)n1 [β-crystal form] | – | less hygroscopic than the α-crystal form | thermodynamically more stable at temperatures below 140 °C
